From US20040253255A1, “Biological compositions and methods for treatment of nasopharyngeal cancer” (priority 2003, published 2004)
Read-outs that look alike come from different tables or passages of the source.

How the values were obtained:
[1] = tested on: human nasopharyngeal cancer; format: in vivo; conditions: tumor-bearing mice, 30 consecutive days of treatment, sacrificed on 31st day
Method: The mice injected with tumor cells were divided into 4 experimental groups of ten mice per group and one control group. The four experimental groups were triplicated (i.e., using a total of 120 mice in the experimental groups).
The mice in group CK2 also started receiving saline on the same day as the other four groups. The biological compositions, untreated yeast cells and saline were administered orally by a feeding tube and the CTX by intravenous injection for 30 consecutive days.

[2] = tested on: human nasopharyngeal cancer; format: in vivo, mice; conditions: for Number of live animals remaining in the groups after 30 days of treatment: mice, 30 per group
Method: The biological composition comprising […] per ml of activated and conditioned yeast cells of the strain Saccharomyces carlsbergensis Hansen strain AS2.116 was prepared by the methods described in Section 5.1 and subsections therein.
The animals were prepared in a similar manner as described in Section 8.1.
(§1) The mice injected with tumor cells were divided into 4 experimental groups of ten mice per group and one control group. The four experimental groups were triplicated (i.e., using a total of 120 mice in the experimental groups). In group 2AY, the mice received 0.3 ml of the biological composition once per day. In group 2NY, the mice received 0.3 ml of the untreated yeast cells once per day. In group 2CTX, the mice were injected intravenously with 30 mg of cyclophosphamide (CTX) per kg body weight per day. In group 2CK1, the mice received 0.3 ml of physiological saline once per day.
(§2) The mice received the biological compositions, untreated yeast cells, CTX or saline on the same day as the tumor cells were transplanted. The mice in group 2CK2 also started receiving saline on the same day as the other four groups. The biological compositions, untreated yeast cells and saline were administered orally by a feeding tube and the CTX by intravenous injection for 30 consecutive days. The mice were observed over 6 months from the day of tumor inoculation and survival was recorded. The weight of the mice and the weight of the tumor were determined by standard techniques.

[3] = tested on: human nasopharyngeal cancer; test: rat model of human nasopharyngeal cancer, survival time; format: in vivo, Wistar rats; conditions: for Number of live animals remaining in the groups after 21 days of treatment: rats, 30 per group
Method: (§3) The biological composition comprising 10^8 cells per ml of activated and conditioned yeast cells of the strain Saccharomyces carlsbergensis Hansen strain AS2.116 was prepared by the methods described in Section 5.1 and subsections therein.
The animals were prepared in a similar manner as described in Section 6.1.
as §1, with “rats transplanted” for “mice injected”, “rats” for “mice”, “2.0” for “0.3”, “2TSPA,” for “2CTX,”, “1.5” for “with 30”, “thiotepa (TSPA)” for “cyclophosphamide (CTX)”
as §2, with “rats” for “mice”, “TSPA” for “CTX”, “21” for “30”

[4] = tested on: human nasopharyngeal cancer; test: rat model of human nasopharyngeal cancer, growth of the tumor; format: in vivo; conditions: tumor-bearing Wistar rats, 21 consecutive days of treatment, sacrificed on 22nd day
Method: as §3
The animals used to generate the nasopharyngeal cancer cells for the experiments were Wistar rats, male and female, 190 to 210 gram in body weight. The rats were starved for 24 hours before the surgery.
Human nasopharyngeal cancer samples (obtainable from Cancer Institute, The Chinese Academy of Medical Sciences, Beijing, China) were carefully selected before, during, and after surgery in order to ensure engraftment occurred at the original position in the rat. The nasopharyngeal cancer samples were obtained from patients who have not received any radiation, chemotherapy or immune enhancement treatment. Nasopharyngeal cancer samples were divided into sections of about 1 mm^3 in size and immediately stored in RPMI-1640 suspension after removal from the human patient.
The animals were generally anaesthetized. […]
The rats received the biological compositions, untreated yeast cells, TSPA or saline on the same day as the tumor cells were transplanted. […] On the 22nd day from tumor inoculation, the rats were sacrificed and the weight of the rats as well as the weight of the tumor were determined by standard techniques.

[5] = 0 month after cessation of treatment
[6] = 1 month after cessation of treatment
[7] = 2 months after cessation of treatment
[8] = 3 months after cessation of treatment
[9] = 4 months after cessation of treatment
[10] = 5 months after cessation of treatment
[11] = 6 months after cessation of treatment
[12] = rats that survived, observed over 6 months
[13] = mice that survived, observed over 6 months

Question: How did the “mean weight of mice and standard deviation” value [1] turn out when `O=P1(N(CCCl)CCCl)NCCCO1` (stereo not drawn) [CTX, cyclophosphamide] was run?
Answer: 19.7 ± 2.4 g

Question: What about the “mean weight of tumor nodules and standard deviation” value [1] of the same compound?
Answer: 0.86 ± 0.13 g

Question: And the “Number of live animals remaining in the groups after 30 days of treatment” value [2, 5]?
Answer: 30

Question: And the “Number of live animals remaining in the groups after 30 days of treatment” value [2, 6]?
Answer: 27

Question: And the “Number of live animals remaining in the groups after 30 days of treatment” value [2, 7]?
Answer: 17

Question: And the “Number of live animals remaining in the groups after 30 days of treatment” value [2, 8]?
Answer: 11

Question: What about the “Number of live animals remaining in the groups after 30 days of treatment” value [2, 9] of the same compound?
Answer: 3

Question: And the “Number of live animals remaining in the groups after 30 days of treatment” value [2, 10]?
Answer: 0

Question: And the “Number of live animals remaining in the groups after 30 days of treatment” value [2, 11]?
Answer: 0

Question: What about the survival of mice ([2]; observed over 6 months) of the same compound?
Answer: all died during the experiment

Question: Which results are given for `S=P(N1CC1)(N1CC1)N1CC1` [TSPA, thiotepa]?
Answer: survival of rats ([3]; from injection of tumor cells): all died after four months from injection of tumor cells; mean weight of rats and standard deviation [3, 12]: all animals dead; mean weight of tumor nodules and standard deviation [3, 12]: all animals dead; Number of live animals remaining in the groups after 21 days of treatment [3, 5]: 30; Number of live animals remaining in the groups after 21 days of treatment [3, 6]: 26; Number of live animals remaining in the groups after 21 days of treatment [3, 7]: 24; Number of live animals remaining in the groups after 21 days of treatment [3, 8]: 17; Number of live animals remaining in the groups after 21 days of treatment [3, 9]: 7; Number of live animals remaining in the groups after 21 days of treatment [3, 10]: 0; Number of live animals remaining in the groups after 21 days of treatment [3, 11]: 0; mean weight of rats and standard deviation [4]: 207 ± 3.8 g; mean weight of tumor nodules and standard deviation [4]: 1.6 ± 0.74 mg; mean weight of mice and standard deviation [2, 13]: all animals dead; mean weight of tumor nodules and standard deviation [2, 13]: all animals dead
